Results reported in PMC3543412, “Fatty Acid Solubilizer from the Oral Disk of the Blowfly” (PLoS ONE, 2013).

How the values were obtained:
[1] = target: T1, PregOBP56a (Phormia regina odorant-binding protein 56a) (Phormia regina, UniProt L8B8J6); assay: direct fluorescence titration of the reporter probe, pH […]
T1 construct: recombinant mature PregOBP56a (117 amino acid residues)
T1 sequence (L8B8J6 19-135): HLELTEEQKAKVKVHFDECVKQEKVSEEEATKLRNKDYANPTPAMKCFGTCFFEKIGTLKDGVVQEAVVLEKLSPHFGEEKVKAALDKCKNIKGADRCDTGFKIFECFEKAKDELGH

[2] = target: T1, PregOBP56a (Phormia regina odorant-binding protein 56a); assay: fluorescence competitive binding assay (1-NPN displacement), pH […]

| Compound | Kd [1] [µM] | Kd [2] [µM] |
| --- | --- | --- |
| c1ccc(Nc2cccc3ccccc23)cc1 [1-NPN, N-phenyl-1-naphthylamine] | 11.4 |  |
| CCCCC/C=C\C/C=C\CCCCCCCC(=O)O [linoleic acid] |  | 0.51 |
| CCCCCCCC/C=C\CCCCCCCC(=O)O [oleic acid] |  | 0.71 |
| CCCCCCCCCCCCCCCC(=O)O [palmitic acid] |  | 0.28 |
| CCCCCCCCCCCCCCCCCC(=O)O [stearic acid] |  | 0.35 |
